Measured values as given in patent publication US5041567A, “Antibacterial monic acid derivatives” (Beecham Group plc, priority 1982, dated 1991).
≈ marks a conversion by molar mass, not a printed value. Like-named read-outs stand apart in the source and are kept apart here.

Tests used:
[1] = system: M. suipneumoniae HK(2); test: MIC against mycoplasma in vitro; format: cell-based; settings: Mesomycoplasma hyopneumoniae, 144 h
[2] = system: M. hyorhinis ATCC 23234; test: MIC against mycoplasma in vitro; format: cell-based; settings: Mesomycoplasma hyorhinis, ATCC23234, 144 h
[3] = system: Bord. bronchiseptica B09; test: MIC against veterinary bacteria in vitro; settings: Bordetella bronchiseptica, B09, 18 h
Protocol: (§1) The activity of the compounds of the Examples against various veterinarily important bacteria, was assayed in vitro using two-fold serial dilutions in Diagnostic Sensitivity Test Agar inoculated with 10^4 organisms.

[4] = system: Staph. aureus Oxford; test: MIC against veterinary bacteria in vitro; settings: Staphylococcus aureus, 18 h
Protocol: as §1

[5] = system: M. suipneumoniae MS 16; test: MIC against mycoplasma in vitro; format: cell-based; settings: Mesomycoplasma hyopneumoniae, MS16, 144 h; M. suipneumoniae MS 16; 6 days, 37° C.; read-out: MIC
[6] = system: M. bovigenitalium ATCC 14173; test: MIC against mycoplasma in vitro; format: cell-based; settings: 144 h
[7] = system: Sarcina lutea 8340; test: MIC against human bacteria in vitro; format: cell-based; settings: Micrococcus luteus; Sarcina lutea 8340; 5% chocolated horse blood agar, 18 hours; read-out: MIC
[8] = system: M. gallisepticum S6; test: MIC against mycoplasma in vitro; format: cell-based; settings: Mycoplasmoides gallisepticum
[9] = system: M. suipneumoniae NB12; test: MIC against mycoplasma in vitro; format: cell-based; settings: Mesomycoplasma hyopneumoniae
[10] = system: Bord. bronchiseptica B08; test: MIC against veterinary bacteria in vitro; settings: Bordetella bronchiseptica, B08, 18 h
Protocol: as §1

[11] = system: Haemophilus influenzae Wy21; test: MIC against human bacteria in vitro; format: cell-based
[12] = system: Past. multocida PA2; test: MIC against veterinary bacteria in vitro; settings: Pasteurella multocida, PA2, 18 h
Protocol: as §1

[13] = system: Pasteurella multocida 1633; test: MIC against human bacteria in vitro; format: cell-based; settings: Pasteurella multocida 1633; 5% chocolated horse blood agar, 18 hours; read-out: MIC
[14] = system: Erysipelothrix rhusiopathiae NCTC 8163; test: MIC against veterinary bacteria in vitro; settings: Erysipelothrix rhusiopathiae, NCTC8163, 18 h
Protocol: as §1

[15] = system: Ps. aeruginosa NCTC 10662; test: MIC against human bacteria in vitro; format: cell-based; settings: Pseudomonas aeruginosa, NCTC10662; Ps. aeruginosa NCTC 10662; 5% chocolated horse blood agar, 18 hours; read-out: MIC
[16] = system: S. typhimurium S18; test: MIC against veterinary bacteria in vitro; settings: Salmonella enterica, TYPHIMURIUM, 18 h
Protocol: as §1

[17] = system: M. suipneumoniae JF 435; test: MIC against mycoplasma in vitro; format: cell-based; settings: Mesomycoplasma hyopneumoniae, JF435, 144 h
[18] = system: Staph. aureus W2827; test: MIC against human bacteria in vitro; format: cell-based; settings: Staphylococcus aureus; Staph. aureus W2827; 5% chocolated horse blood agar, 18 hours; read-out: MIC
[19] = system: Strep. agalactiae 2788-B; test: MIC against human bacteria in vitro; format: cell-based; settings: Streptococcus agalactiae; Strep. agalactiae 2788-B; 5% chocolated horse blood agar, 18 hours; read-out: MIC
[20] = system: E. coli ESS; test: MIC against human bacteria in vitro; format: cell-based; settings: Escherichia coli; E. coli ESS; 5% chocolated horse blood agar, 18 hours; read-out: MIC
[21] = system: M. pneumoniae ATCC 15492; test: MIC against mycoplasma in vitro; format: cell-based; settings: Mycoplasmoides pneumoniae, ATCC15492, 144 h; M. pneumoniae ATCC 15492; 6 days, 37° C.; read-out: MIC
[22] = system: Strep. agalactiae SPA1; test: MIC against veterinary bacteria in vitro; settings: Streptococcus agalactiae, SPA1, 18 h
Protocol: as §1

[23] = system: Strep. spp. 64/848-C; test: MIC against human bacteria in vitro; format: cell-based; settings: Strep. spp. 64/848-C; 5% chocolated horse blood agar, 18 hours; read-out: MIC
[24] = system: M. suipneumoniae ATCC 25095; test: MIC against mycoplasma in vitro; format: cell-based; settings: Mesomycoplasma hyopneumoniae, ATCC25095, 144 h
[25] = system: E. coli E1; test: MIC against veterinary bacteria in vitro; settings: Escherichia coli, E1, 18 h
Protocol: as §1

[26] = system: M. suipneumoniae NCTC 10110; test: MIC against mycoplasma in vitro; format: cell-based; settings: Mesomycoplasma hyopneumoniae, NCTC10110, 144 h
[27] = system: S. dublin S7; test: MIC against veterinary bacteria in vitro; settings: Salmonella enterica, S7, 18 h
Protocol: as §1

[28] = system: M. suipneumoniae UCD 1; test: MIC against mycoplasma in vitro; format: cell-based; settings: Mesomycoplasma hyopneumoniae, UCD1, 144 h
[29] = system: E. coli NCTC 10418; test: MIC against veterinary bacteria in vitro; settings: Escherichia coli, NCTC10418, 18 h
Protocol: as §1

[30] = system: M. suipneumoniae TAM 6N; test: MIC against mycoplasma in vitro; format: cell-based; settings: Mesomycoplasma hyopneumoniae, TAM6N, 144 h
[31] = system: Staph. aureus 152 (pen. sens); test: MIC against veterinary bacteria in vitro; settings: Staphylococcus aureus, 18 h
Protocol: as §1

[32] = system: Strep. suis (group D) SPS11; test: MIC against veterinary bacteria in vitro; settings: Streptococcus suis, 18 h
Protocol: as §1

[33] = system: Staph. aureus Russell; test: MIC against human bacteria in vitro; format: cell-based; settings: Staphylococcus aureus; Staph. aureus Russell; 5% chocolated horse blood agar, 18 hours; read-out: MIC

SMILES | MIC [1] [µg/mL] | MIC [3] [µg/mL] | MIC [4] [µg/mL] | MIC [5] [µg/mL] | MIC [6] [µg/mL] | MIC [7] [µg/mL] | MIC [10] [µg/mL] | MIC [12] [µg/mL] | MIC [13] [µg/mL] | MIC [14] [µg/mL] | MIC [15] [µg/mL] | MIC [16] [µg/mL] | MIC [17] [µg/mL] | MIC [18] [µg/mL] | MIC [19] [µg/mL] | MIC [20] [µg/mL] | MIC [21] [µg/mL] | MIC [22] [µg/mL] | MIC [23] [µg/mL] | MIC [25] [µg/mL] | also measured
CSc1cccc(-c2cnc(/C=C(\C)C[C@@H]3OC[C@H](C[C@@H]4O[C@H]4[C@@H](C)[C@H](C)O)[C@@H](O)[C@H]3O)o2)c1 [Example 22, 5-m-Methylthiophenyl-2-(1-normon-2-yl)oxazole A] | 1 (≈ 2.04 µM) | 40 (≈ 81.7 µM) | 2.5 (≈ 5.11 µM) | 0.5 (≈ 1.02 µM) | 0.1 (≈ 0.204 µM) | > 128 | > 80 | 10 (≈ 20.4 µM) | 32 (≈ 65.4 µM) | 80 (≈ 163 µM) | > 128 | > 80 | 1 (≈ 2.04 µM) | 16 (≈ 32.7 µM) | 16 (≈ 32.7 µM) | 64 (≈ 131 µM) | 5 (≈ 10.2 µM) | 10 (≈ 20.4 µM) | 16 (≈ 32.7 µM) | > 80 | MIC [2]: 1 µg/mL (≈ 2.04 µM); MIC ([8]; 144 h, M. gallisepticum S6, 6 days, 37° C., read-out: MIC): 5 µg/mL (≈ 10.2 µM); MIC ([9]; NB12, 144 h): 1 µg/mL (≈ 2.04 µM); MIC ([11]; Haemophilus influenzae Wy21, 5% chocolated horse blood agar, 18 hours, read-out: MIC): 4 µg/mL (≈ 8.17 µM); MIC [24]: 1 µg/mL (≈ 2.04 µM); MIC [26]: 1 µg/mL (≈ 2.04 µM); MIC [27]: > 80 µg/mL; MIC [28]: 1 µg/mL (≈ 2.04 µM); MIC [29]: > 80 µg/mL; MIC [30]: 1 µg/mL (≈ 2.04 µM); MIC [31]: 1.25 µg/mL (≈ 2.55 µM); MIC [32]: 20 µg/mL (≈ 40.8 µM); MIC [33]: 16 µg/mL (≈ 32.7 µM)
C/C(=C\c1ncc(-c2ccsc2)o1)C[C@@H]1OC[C@H](C[C@@H]2O[C@H]2[C@@H](C)[C@H](C)O)[C@@H](O)[C@H]1O [Example 20, 5-(3-Thienyl)-2-(1-normon-2-yl) oxazole A] | 1 (≈ 2.22 µM) | 10 (≈ 22.2 µM) | 2.55 (≈ 5.67 µM) | 0.5 (≈ 1.11 µM) | 0.05 (≈ 0.111 µM) | > 128 | 80 (≈ 178 µM) | 0.312 (≈ 0.694 µM) | 4 (≈ 8.9 µM) | 80 (≈ 178 µM) | > 128 | > 80 | 1 (≈ 2.22 µM) | 4 (≈ 8.9 µM) | 2 (≈ 4.45 µM) | 4 (≈ 8.9 µM) | 0.5 (≈ 1.11 µM) | 1.25 (≈ 2.78 µM) | 2 (≈ 4.45 µM) | > 80 | MIC ([2]; M. hyorhinis ATCC 23234, 6 days, 37° C., read-out: MIC): 0.5 µg/mL (≈ 1.11 µM); MIC ([8]; S6, 144 h): 2.5 µg/mL (≈ 5.56 µM); MIC ([9]; 144 h, M. suipneumoniae NB12, Friis broth, 0.9% agarose, 6 days, 37° C., read-out: MIC): 0.5 µg/mL (≈ 1.11 µM); MIC ([11]; Haemophilus influenzae, WY21, 18 h): 0.5 µg/mL (≈ 1.11 µM); MIC ([24]; M. suipneumoniae ATCC 25095, 6 days, 37° C., read-out: MIC): 0.5 µg/mL (≈ 1.11 µM); MIC [26]: 1 µg/mL (≈ 2.22 µM); MIC [27]: > 80 µg/mL; MIC [28]: 1 µg/mL (≈ 2.22 µM); MIC [29]: > 80 µg/mL; MIC [30]: 1 µg/mL (≈ 2.22 µM); MIC [31]: 0.63 µg/mL (≈ 1.4 µM); MIC [32]: 40 µg/mL (≈ 89 µM); MIC [33]: 4 µg/mL (≈ 8.9 µM)
